These are literature values, as cited in patent US20130210861A1, “METHODS AND COMPOSITIONS FOR MANAGING CARDIOVASCULAR DISEASE ASSOCIATED WITH CHRONIC KIDNEY DISEASE” (priority 2011, published 2013).

Read-outs that look alike come from different tables or passages of the source.

The conditions of data set [1]: Lumina cohort, southern US.
The conditions of data set [2]: Latin American cohort.
For data set [3] the following is noted: HCQ use.
The conditions of data set [4]: multiple rheumatological cohorts with CVD.
Test in data set [5]: not given
The source holds these as a separate data set.

Data set [6] deals with matrix metallo proteinase-9 (MMP-9). To be noted: SLE patients.
The conditions of data set [7]: patients with inflammatory disorders.

On to `CCN(CCO)CCCC(C)Nc1ccnc2cc(Cl)ccc12` (centres unmarked) [HCQ, hydroxychloroquine], for which the “cardiovascular deaths in patients using HCQ” value (232 patients, 52-month study period, 7 deaths in those never exposed to HCQ) is recorded as “zero”. Also, the “HR for death from any cause” value (Spanish trial cohort, HCQ use) was 0.14. Also, the OR for death in data set [1] is on record as 0.31; in [2] it was 0.62; in data set [4], 0.12-0.49. In [3], the “OR for metabolic syndrome” value is reported as 0.13. Besides, in data set [3], the “OR for vascular events” value is given as 0.3. Besides, in data set [5] (200 mg tablet), the absorption entry is “absorbed rapidly and completely”. For the same compound, the elimination half-life in data set [5] (200 mg tablet (155 mg of base)) was 32 to 50 days. Moreover, in data set [5] (in vivo), the plasma protein binding result is reported as “moderate”. Moreover, the atheroprotection result in the data set with APO E -/- mice is given as “significant atheroprotection”. In addition, in [6], the MMP-9 secretion entry was “inhibited”. The fasting glucose result in [7] is reported as “lowered”.

Consider `CCN(CC)CCCC(C)Nc1ccnc2cc(Cl)ccc12` (centres unmarked) [Chloroquine], for which the atheroprotection entry in the data set on APO E -/- mice is “significant atheroprotection activity”.
